Assay results from patent US11345691B2, “Prodrug modulators of the cystic fibrosis transmembrane conductance regulator protein and methods of use” (AbbVie Global Enterprises Ltd., priority 2019, dated 2022).

Test: Phase 1 first-in-human single ascending dose pharmacokinetic study (Pharmacokinetic Study 1)
Format: in vivo
Conditions: after single oral 250 mg or 500 mg dose of Example 4—Prodrug; healthy adult subjects
Description: Evaluate the PK profile of Example 4, which is a prodrug of (5-{3-amino-5-[4-(trifluoromethoxy)benzene-1-sulfonyl]pyridin-2-yl}-1,3,4-oxadiazol-2-yl)methanol, in healthy human adult subjects.
Two open label Phase 1, first in human studies in adult healthy subjects were conducted to evaluate the safety, tolerability, and pharmacokinetics of single oral doses of Example 1 administered as an oral suspension and prodrug Example 4 capsule, respectively. Subjects were screened and enrolled based on pre-specified criteria for inclusion and exclusion. The safety in subjects was determined by clinical evaluation and by monitoring of laboratory parameters. Blood samples were longitudinally collected at pre-specified time points following the administration of Example 1 or Example 4—Prodrug to measure the plasma concentrations of study drug and determine the pharmacokinetics of Example 1 and Example 4—Prodrug.
For this study the inclusion criteria includes the following: • 1. […]
Plasma concentrations of Example 1 and Example 4—Prodrug were determined using validated methods. The values for the pharmacokinetic parameters of Example 1 or Example 4—Prodrug were determined using noncompartmental methods with WinNonlin Phoenix 8.1.

CC(C)[C@H](N)C(=O)OCc1nnc(-c2ncc(S(=O)(=O)c3ccc(OC(F)(F)F)cc3)cc2N)o1 [Example 4, (5-{3-amino-5-[4-(trifluoromethoxy)benzene-1-sulfonyl]pyridin-2-yl}-1,3,4-oxadiazol-2-yl)methyl (2S)-2-amino-3-methylbutanoate]
Plasma concentrations of intact Example 4—Prodrug: no quantifiable plasma concentrations
